Consider one molecule from patent US9918452B2, “Method and apparatus for controlling herbivore fowl populations” (2345422 Ontario Inc., priority 2013, dated 2018).

The assay has as its system Canada Geese. As to the kind of experiment: Repellent-adulterated feed plus non-adulterated attractant feed in a recreational area. In kind it is in vivo. The source says: Owing to the problems encountered with both wide-scale repellent spraying and the use of repellent-treated feed on its own, a new approach to controlling the goose population at the site of Example 1 was developed. In this new approach, both repellent-adulterated feed in the form of cracked corn treated with methyl anthranilate, and non-adulterated feed (also in the form of cracked corn) was used.
In this approach to controlling the goose population at the site of Example 1, a commercially available animal feeder with a 200 lb. capacity tripod mounted hopper and SOLAR ELITE® dispensing head were obtained from On Time Wildlife Feeders (2488 Hwy 33, Ruston, La. 71270, U.S.A.). The feeder was modified as described in Example 5 to become a repellent station. The repellent reservoir was filled with an 8% solution of methyl anthranilate solution (prepared using fifty-five percent of a commercially available REJEX-IT® solution and forty-five percent water) and the flow rate from the repellent reservoir was adjusted to be approximately 0.0025 liters per second. The hopper of the repellent station was then filled with cracked corn.
In FIG. 1a a portion of the site described in Example 1 is depicted. […]

Molecules are shown by their SMILES.

With `COC(=O)c1ccccc1N` [methyl anthranilate], the “acceptance of repellent-adulterated cracked corn by geese” value (8% methyl anthranilate solution sprayed on cracked corn at the repellent station, approx. 0.0025 liters per second) was “intolerable”. Moreover, for the setting “repellent station with 8% methyl anthranilate solution plus unadulterated cracked corn on paved area, length of trial (six weeks)”, the “return of geese to the grassy area where they are not desired” value is on record as “did not return to grassy area 100”.
